Measurements taken from patent EP2711367A1, “New spiroepoxide tetrahydrobenzo-triazoles and -imidazoles and their use as MetAP-II inhibitors” (Deutsches Krebsforschungszentrum, priority 2012, dated 2014).
Read-outs that look alike come from different tables or passages of the source.

Key:
[1] = test system: human umbilical vein endothelial cells (HUVEC); experiment: HUVEC growth arrest, crystal violet staining; assay type: cell-based
Source text: For the measurement of the HUVEC growth arrest (Example 19) and the used materials and equipment were:
• Cells: Primary human umbilical vein cells (HUVEC) were obtained from GIBCO (Cat. C-015-5C). • Cell culture medium: Medium 200 supplemented with LSGS (Gibco, Cat. M-200-500). • Trypsin/EDTA (Gibco, Cat R-001-100) • Trypsin Neutralizer solution (Gibco, Cat R-002-100). • Crystal violet (Merck / Cat. no. 1408) • Ethanol (Riedel-de-Haen / Cat. no. 32205) • Acetic acid (Riedel-de-Haen / Cat. no. 33209) • Culture flasks: Coming, 430168 • 96 well plates: Greiner, 655 101
• Microtiter pipettes: •Brand Transferpette-8, • Gilson Pipetman 20 and 200 Laminar air flow cabinet: Gelman, Celaire • ELISA reader: Thermo, Multiskan Ascent • Microscope: Leitz Diavert • Balance: Sartorius RC 210 D • CO2 incubator: Heraeus CO2-Auto-Zero • Centrifuge: Heraeus Biofuge primo • Cell counter: Assistent, Neubauer hematocytometer
Crystal violet solution: • Crystal violet (Merck) was dissolved in ethanol (PA quality, Roth) to a concentration of 10 %. The solution was diluted with ddH2O 1:20.
Test compounds: • Compounds of the present invention were dissolved at a concentration of 10 mM in DMSO (Roth, Cat. 47201). Stock solutions of test compounds were diluted 1:10 not earlier than 1 hour before the assay was made.
• 1. HUVEC cells were seeded in 96-well plates ([…]). • 2. 6 hours later test compounds were added in triplicates Concentrations of test compound: 0, 1.6, 3.2, 6.3, 12.5, 25, 50, 100 µM. Fresh medium and test compounds were added every 48 hr. • 3. One 96 well plate (t=0) with untreated cells was fixed at the same time point as treatment of cells with test compounds was initiated. • 4. Test plates were incubated for 10 days in a CO2 incubator. • 5. Fixation of cells: Wells were washed with 100 µL/well PBS. PBS was decanted and 100 µL of 3 % formaldehyde/well was added. After 5 min, formaldehyde was decanted and plates were dried upside down on blotting paper overnight at room temperature. • 6. Staining: 0.1 mL of crystal violet solution was added to each well with a 12-channel pipette. After incubation for 5 min at room temperature, the crystal violet solution was decanted and plates were washed 5 x by submersion in 3 L fresh water. • 7. After drying (plates were dried on blotting paper upside down overnight) 0.1 mL of ethanol/acetic acid (99:1) was added to each well and the optical density at 595 nm was determined in an ELISA reader.
The evaluation of the growth inhibitory activity was carried out as follows: • Definitions: Growth: Mean OD at t=10 d - mean OD at t=0. • Evaluation: Dose response curves were established by plotting growth against concentration of compounds using Microsoft Excel.

hsMetAP-II = hsMetAP-II (Homo sapiens, UniProt P50579); experiment: MetAP inhibitory activity, Met-Gly-Met-Met substrate, HPLC detection of Gly-Met-Met; assay type: biochemical, hs
Chain of hsMetAP-II (P50579 whole entry): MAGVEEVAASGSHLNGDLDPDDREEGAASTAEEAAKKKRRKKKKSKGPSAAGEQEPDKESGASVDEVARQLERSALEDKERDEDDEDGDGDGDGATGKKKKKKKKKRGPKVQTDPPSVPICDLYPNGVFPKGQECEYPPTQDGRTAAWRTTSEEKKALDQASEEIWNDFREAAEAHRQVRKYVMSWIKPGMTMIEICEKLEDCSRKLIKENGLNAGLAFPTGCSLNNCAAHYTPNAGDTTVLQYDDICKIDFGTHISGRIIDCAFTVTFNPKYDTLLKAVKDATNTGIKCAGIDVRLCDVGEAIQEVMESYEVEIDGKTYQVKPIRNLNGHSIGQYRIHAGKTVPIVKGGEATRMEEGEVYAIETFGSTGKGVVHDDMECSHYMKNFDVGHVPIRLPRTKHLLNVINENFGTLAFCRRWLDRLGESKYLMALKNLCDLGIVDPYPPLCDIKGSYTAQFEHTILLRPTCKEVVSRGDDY
Description: (§1) The below protocol describes the measurement of the inhibitory activity of the compounds of the present invention by using E. coli MetAP, hsMetAP-I, and hsMetAP-II.
Inhibition activity of compounds was studied using the tetrapeptide substrate Met-Gly-Met-Met (Bachem) followed by HPLC analysis of the product Gly-Met-Met. The assay was performed in 96 well plates (Greiner) at a total reaction volume of 100 µl. […] Then the substrate Met-Gly-Met-Met was added to a final concentration of 400 µM. After an incubation period of 15 minutes (HsMetAP-I), 20 minutes (EcMetAP) or 60 minutes (HsMetAP-II) at 37 °C, the enzyme reaction was stopped by adding 10 µl 4 % trifluoroacetic acid. The plate was centrifuged at 1000 x g for 10 minutes.
(§2) Detection of the product Gly-Met-Met was performed by HPLC (Jasco), and typically using the following, or equivalent conditions: C18 column (Dr. Maisch, ReproSil-Pur® 120 ODS-3, 3 µm, 50 x 2 mm). 80 µl of sample were applied on the column and eluted with mobile phase A (water and 0.1 % trifluoroacetic acid, filtered, degassed) and B (acetonitrile and 0.1 % trifluoroacetic acid, degassed) over 8 minutes.
(§3) Percentage inhibition was calculated as the relation of Gly-Met-Met amount resulting in inhibited and uninhibited enzyme reaction (positive control). […] The values were determined in relation to positive controls with equal DMSO contents. The inhibition values for the varying concentrations of inhibitor were then fitted to a logarithmic dose-response curve and the IC50 values were calculated from the equation thus obtained.

hsMetAP-I = hsMetAP-I (Homo sapiens, UniProt P53582); experiment: as above; assay type: biochemical, hs; conditions: single concentration: inhibitor 25 µM, enzyme 50 nM, 15 minutes substrate incubation at 37 °C
Description: as §1
(§4) Inhibition activity of compounds was studied using the tetrapeptide substrate Met-Gly-Met-Met (Bachem) followed by HPLC analysis of the product Gly-Met-Met. The assay was performed in 96 well plates (Greiner) at a total reaction volume of 100 µl. […] A positive control with DMSO solution instead of inhibitor at the corresponding concentration was prepared. Then the substrate Met-Gly-Met-Met was added to a final concentration of 400 µM. After an incubation period of 15 minutes (HsMetAP-I), 20 minutes (EcMetAP) or 60 minutes (HsMetAP-II) at 37 °C, the enzyme reaction was stopped by adding 10 µl 4 % trifluoroacetic acid. The plate was centrifuged at 1000 x g for 10 minutes.
as §2, §3

E. coli MetAP = E. coli MetAP (Escherichia coli, UniProt P0AE18); experiment: as above; assay type: biochemical; conditions: for inhibition at 25 µM: read-out: E. Coli % inhibition; for E. Coli % inhibition: single concentration: inhibitor 25 µM, enzyme 50 nM, 20 minutes substrate incubation at 37 °C
Chain of E. coli MetAP (P0AE18 whole entry): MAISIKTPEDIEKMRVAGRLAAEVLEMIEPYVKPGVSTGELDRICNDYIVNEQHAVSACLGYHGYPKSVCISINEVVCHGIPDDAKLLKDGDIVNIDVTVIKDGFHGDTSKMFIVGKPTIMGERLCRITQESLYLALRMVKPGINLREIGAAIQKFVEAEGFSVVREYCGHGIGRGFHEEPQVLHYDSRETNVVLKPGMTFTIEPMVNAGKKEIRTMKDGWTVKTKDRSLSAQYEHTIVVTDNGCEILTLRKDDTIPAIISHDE
Description: as §1, §4, §2, §3

[2] = background, Phase II clinical compound; cited from earlier work
[3] = Homo sapiens, HUVEC, 240 h, growth over 10 days, 0-100 µM, OD at 595 nm, read-out: HUVEC IC50
[4] = enzyme 50 nM, 400 µM Met-Gly-Met-Met, 60 minutes at 37 °C, read-out: hsMetAP-II IC50
[5] = single concentration: inhibitor 25 µM, enzyme 50 nM, 60 minutes substrate incubation at 37 °C, read-out: hsMetAP-II % inhibition
[6] = hsMetAP-II IC50, enzyme 50 nM, 400 µM Met-Gly-Met-Met, 60 minutes at 37 °C
[7] = read-out: hsMetAP-II % inhibition, single concentration: inhibitor 25 µM, enzyme 50 nM, 60 minutes substrate incubation at 37 °C

In the case of O=C1CCC2(CO2)c2c1nnn2CC1CCCCC1 (stereo not shown) [BK-I-177-A], the IC50 [1, 3] is reported as 9700 nM, the IC50 (hsMetAP-II; [4]) is reported as 17000 ± 6000 nM and the inhibition at 25 µM (hsMetAP-II; [5]) is reported as 40 ± 3%. For the same molecule, the hsMetAP-I % inhibition (hsMetAP-I) was “Inactive” and the inhibition at 25 µM (E. coli MetAP) was 19 ± 5%.

Molecule COc1ccc(Cn2nnc3c2C2(CCC3OC(=O)Nc3ccccc3)CO2)cc1 (racemic) [UWU-XII-149-A] has an IC50 ([1]; growth over 10 days, 0-100 µM, OD at 595 nm, read-out: HUVEC IC50) of 3200 nM, an IC50 (hsMetAP-II; [6]) of 990 ± 50 nM and a hsMetAP-II % inhibition (hsMetAP-II; single concentration: inhibitor 25 µM, enzyme 50 nM, 60 minutes substrate incubation at 37 °C) of 100%. The hsMetAP-I % inhibition (hsMetAP-I) was “Inactive” and the “E. Coli % inhibition” value (E. coli MetAP) was “Inactive”.

Work on CC(C)NC(=O)O[C@@H]1CC[C@@]2(CO2)c2c1nnn2Cc1ccccc1 (racemic) [UWU-XII-128-C] yielded an IC50 [1, 3] of 9500 nM, an IC50 (hsMetAP-II; [6]) of 18000 ± 9000 nM and an inhibition at 25 µM (hsMetAP-II; [7]) of 60 ± 5%. The hsMetAP-I % inhibition (hsMetAP-I) was “Inactive” and the inhibition at 25 µM (E. coli MetAP) was 18 ± 2%.

In the case of COc1ccc(Cn2nnc3c2C2(CCC3=O)CO2)cc1 (stereo not shown) [HHS-I-028-B], the IC50 [1, 3] is reported as 8800 nM, the “inhibitory effect on MetAP-II (in words)” value (hsMetAP-II) is reported as “good inhibitory effect” and the IC50 (hsMetAP-II; [4]) is reported as 980 ± 30 nM. The inhibition at 25 µM (hsMetAP-II; [5]) was 97 ± 0.3%, the hsMetAP-I % inhibition (hsMetAP-I) was “Inactive” and the “E. Coli % inhibition” value (E. coli MetAP) was “Inactive”.

With O=C1CCC2(CO2)c2c1nnn2Cc1ccc(F)cc1 (stereo not shown) [BK-I-178-A] the IC50 [1, 3] was 3200 nM, the IC50 (hsMetAP-II; [4]) was 870 ± 90 nM and the inhibition at 25 µM (hsMetAP-II; [5]) was 100%. For the same molecule, the hsMetAP-I % inhibition (hsMetAP-I) was “Inactive” and the inhibition at 25 µM (E. coli MetAP) was 13 ± 5%.

With O=C1CCC2(CO2)c2c1nnn2Cc1ccc(C(F)(F)F)cc1 (stereo not shown) [BK-I-161-A] the IC50 [1, 3] was 900 nM, the “inhibitory effect on MetAP-II (in words)” value (hsMetAP-II) was “good inhibitory effect” and the IC50 (hsMetAP-II; [4]) was 520 ± 50 nM. The inhibition at 25 µM (hsMetAP-II; [5]) was 100%, the hsMetAP-I % inhibition (hsMetAP-I) was “Inactive” and the “E. Coli % inhibition” value (E. coli MetAP) was “Inactive”.

COc1ccc(Cn2nnc3c2[C@@]2(CC[C@H]3OC(=O)c3ccccc3)CO2)cc1 (racemic) [UWU-XII-023-D] gave an IC50 [1, 3] of 2100 nM, an IC50 (hsMetAP-II; [6]) of 17000 ± 12000 nM and an inhibition at 25 µM (hsMetAP-II; [7]) of 45 ± 4%. The hsMetAP-I % inhibition (hsMetAP-I) was “Inactive” and the “E. Coli % inhibition” value (E. coli MetAP) was “Inactive”.

In the case of COc1ccc(Cn2nnc3c2C2(CCC3OC(=O)NCC(C)C)CO2)cc1 (racemic) [UWU-XII-142-A], the IC50 [1, 3] is reported as 2400 nM, the IC50 (hsMetAP-II) is reported as 150 ± 30 nM and the inhibition at 25 µM (hsMetAP-II; [7]) is reported as 100%. The hsMetAP-I % inhibition (hsMetAP-I) was “Inactive” and the inhibition at 25 µM (E. coli MetAP) was 18.7 ± 0.8%.

In the case of CO[C@@H]1[C@H](OC(=O)NC(=O)CCl)CC[C@]2(CO2)[C@H]1[C@@]1(C)O[C@@H]1CC=C(C)C [TNP-470], the plasma half-life [2] is listed as ~ 2 min.

With COc1ccc(Cn2nnc3c2[C@]2(CC[C@H]3OC(=O)c3ccccc3)CO2)cc1 (racemic) [UWU-II-023-A] the IC50 ([1]; Homo sapiens, HUVEC, 240 h, read-out: HUVEC IC50, growth over 10 days, 0-100 µM, OD at 595 nm) was 2400 nM, the “inhibitory effect on MetAP-II (in words)” value (hsMetAP-II) was “good inhibitory effect” and the IC50 (hsMetAP-II; [6]) was 600 ± 10 nM. For the same molecule, the inhibition at 25 µM (hsMetAP-II; [7]) was 98.6 ± 0.4%, the hsMetAP-I % inhibition (hsMetAP-I) was “Inactive” and the “E. Coli % inhibition” value (E. coli MetAP) was “Inactive”.

With CC(C)NC(=O)O[C@@H]1CC[C@]2(CO2)c2c1nnn2Cc1ccccc1 (racemic) [UWU-XII-128-A] the IC50 [1, 3] was 1200 nM, the “inhibitory effect on MetAP-II (in words)” value (hsMetAP-II) was “good inhibitory effect” and the IC50 (hsMetAP-II; [6]) was 420 ± 70 nM. The inhibition at 25 µM (hsMetAP-II; [7]) was 100%, the hsMetAP-I % inhibition (hsMetAP-I) was “Inactive” and the inhibition at 25 µM (E. coli MetAP) was 24 ± 2%.
